Measurements reported in patent publication US11407741B2, “Compounds and their use as selective inhibitors of caspase-2” (priority 2017, dated 2022).
One block for each molecule: values may come before it. Where a SMILES comes first, the peptide text is derived from it.

Columns and labels:
Casp-2 = molecular target: T1, Casp-2 (Homo sapiens, UniProt P42575); assay: Caspase-2 inhibition assay for reversible inhibitors (IC50, Ki, dilution method); type: biochemical; settings: for IC50: 30 minutes at 37° C. preincubation; for Ki: secondary plot of Lineweaver-Burk
T1 construct: the Caspase-2 and Caspase-3 are human recombinant active enzymes; purchased Enzo Life ALX-201-057-U100
T1 sequence (P42575 170-325 limits assumed): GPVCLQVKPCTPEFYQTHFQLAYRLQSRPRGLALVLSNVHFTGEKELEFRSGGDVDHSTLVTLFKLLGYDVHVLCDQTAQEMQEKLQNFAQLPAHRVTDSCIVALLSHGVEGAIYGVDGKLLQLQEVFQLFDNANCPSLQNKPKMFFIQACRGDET
T1 sequence (P42575 348-452 limits assumed): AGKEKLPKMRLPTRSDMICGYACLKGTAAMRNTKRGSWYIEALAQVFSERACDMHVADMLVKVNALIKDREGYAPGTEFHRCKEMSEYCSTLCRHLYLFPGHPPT
Method: (§1) A preliminary step in the characterization of an inhibitor is the determination of its IC50. The IC50 is the necessary concentration of an inhibitor to decrease the enzyme activity by 50% of its maximum and uninhibited value.
(§2) The compound, at different concentrations, is incubated with the enzyme and buffer for 30 minutes at 37° C. to allow formation of the Enzyme-Inhibitor complex. The reaction is initiated by addition of buffer and substrate, and then activity is measured over 15 minutes for the determination of initial velocities.
(§3) The enzyme and the inhibitor (or DMSO as control) are incubated for 30 minutes at 37° C. The complex thus formed is diluted to 100th in the buffer/substrate mixture and then the activity measurement is started over 20 minutes. The initial rate obtained for the DMSO represents the 100% activity and will serve as a reference for the quantification of the residual activity of the enzyme in the presence of the inhibitor.
(§4) The reaction is started over 20 minutes upon addition of the buffer-substrate mixture.
(§5) Initial velocity values in RFU·min^−1 are reduced to Specific Activity (SA)values (pmol/min/μg enzyme) from an AMC standard range (1 RFU→0.02 pmol).
(§6) The evolution of the ratio 1/SA as a function of 1/[S] makes it possible to obtain the so-called double-inverse graph of Lineweaver-Burk from equation 4 (eq.4) where Vmaxapp and KMapp are the parameters which vary according to the type inhibition and as a function of inhibitor concentration. The intersection of the lines obtained for increasing inhibitor concentrations makes it possible to distinguish different types of inhibitors.
A secondary graph, obtained from the values of the slopes of the Lineweaver-Burk plot as a function of the concentration of inhibitor, makes it possible to obtain the value of the Ki. Its value is given by the abscissa point at the origin.
The initial velocity V0 is expressed from equation 8 (eq.8), where Vmax is the maximum reaction rate (reached when the enzyme is saturated with substrate), [S] the substrate concentration, KM is the Michaelis-Menten constant (substrate concentration corresponding to Vmax/2), Ki is the dissociation constant which accounts for the affinity of the inhibitor for the enzyme.

Caspase-3 = molecular target: T2, Caspase-3 (Homo sapiens, UniProt P42574); assay: Caspase-3 inhibition assay for reversible inhibitors (IC50, Ki); type: biochemical
T2 construct: the Caspase-2 and Caspase-3 are human recombinant active enzymes; purchased R&D Systems 707-C3-010/CF
T2 sequence (P42574 29-175 limits assumed): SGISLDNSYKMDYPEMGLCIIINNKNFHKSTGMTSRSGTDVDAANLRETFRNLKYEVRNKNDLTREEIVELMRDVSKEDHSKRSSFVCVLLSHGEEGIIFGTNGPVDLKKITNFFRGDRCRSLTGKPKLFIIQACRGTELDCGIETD
T2 sequence (P42574 176-277 limits assumed): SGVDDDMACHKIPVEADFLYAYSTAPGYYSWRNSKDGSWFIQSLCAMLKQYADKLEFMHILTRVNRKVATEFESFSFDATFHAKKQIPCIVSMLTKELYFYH
Method: as §1, §2, §3, §4, §5, §6
A secondary graph, obtained from the values of the slopes of the Lineweaver-Burk plot as a function of the concentration of inhibitor, makes it possible to obtain the value of the Ki. Its value is given by the abscissa point at the origin. […]

[1] = tested on: hippocampal neurons intoxicated with Aβ1-42 oligomers; assay: Protection against Abeta neurotoxicity in primary hippocampal neurons in microfluidic chambers; type: cell-based, mice; settings: Aβ intoxicated cells not pretreated, 6 h of intoxication, vs non-intoxicated
Text: Hippocampus are micro-dissected from E16 embryos of C57B16/J wt mice (Rene Janvier, France) in cold Gey's Balanced Salt Solution (GBSS, Sigma) supplemented with 0.1% glucose (Life technologies).
Dissected structures are digested with papain (20 U/ML in DMEM, Sigma; St. Louis, Mo., USA) and mechanically dissociated in the presence of DNAse. Hippocampal cells are then rinsed and re-suspended in DMEM (Life Technologies, Inc., Gaithersburg, Md., USA) to a final density of 18 million cells/ml in Neurobasal (Life technologies) and Glutamax (0.1% LifeTechnologies) supplemented with B27 (1/50) and penicilline/sptreptomycine 1% (Gibco).
This cell suspension is then used to fill the reservoirs of microfluidic chambers, as described (Peyrin et al, 2011 Lab Chips 11(21):3663; Deleglise et al, 2014 Acta Neuropathologica Comm. 2: 145). Microfluidic chips are placed in plastic Petri dishes containing H20-EDTA to prevent evaporation and incubated at 37° C. in a humid 5% CO2 atmosphere. The culture medium is renewed every seven days.
Oligomeric form of Aβ1-42 (Tocris Bioscience, MN, USA), is produced according to Stine W B et al (2003) in J Biol Chem 278, pp 11612-11622 and can be controlled by electron microscopy as in Deleglise B et al. in Acta Neuropathol Commun. 2014; 2: 145).
Briefly, Aβ1-42 lyophilized peptides are solubilized at 1 mM in 1, 1, 1, 3, 3, 3,-hexafluoro-2-propanol (HFIP, Sigma Aldrich). After 30 min of incubation at RT, HFIP is evaporated for 12 h under chemical hood and peptides are dried for 1 h (with a Speed Vac at 4° C.). Then, 5 mM Aβ peptide stock solutions are obtained by resolubilization at in dimethylsulfoxide (DMSO, Sigma Aldrich). To obtain oligomers, Aβ peptide stock solution is diluted in cold phenol free DMEM-F12 medium (Life Technologies) to a final concentration of 100 μM. The solution is then incubated 24 h at 4° C. Soluble Aβ oligomer fraction is collected from the supernatant after a centrifugation step at 20 000 g (10 min; 4° C.), and stored at −80° C. until use.
After 18 days of culture in micro fluidic chambers, hippocampal cells are pre-incubated for 1 h with compounds of the invention prior diluted in phenol free DMEM-F12 medium or in phenol free DMEM-F12 medium alone as a control solution. Cells are then intoxicated for 3 h to 6 h or 24 h with 10 or 100 nm of Aβ1-42 oligomers (or with phenol free DMEM-F12 medium alone as a control solution). After the intoxication step, cells are fixed in 4% paraformaldehyde (PFA, Sigma; St. Louis, Mo., USA) for 20 min RT, and labelled as explained below to evaluate synapses status, cell death or axonal degeneration.
Briefly, after the fixation step, cultures cells are washed twice with PBS+Azide 0.1% for 5 min and permeabilized for 10 min with 0.2% Triton X-100 and 0.1% BSA (Bovine Serum Albumin, Sigma) in PBS+Azide 0.1%. Saturation step is then realized by incubating cells during 30 min in PBS+Azide 0.1%+BSA1%. Primary antibodies are then added and the samples incubated at 4° C. overnight in PBS. Afterwards, samples are rinsed twice for 5 min with PBS+Azide 0.1% and further incubated with the corresponding secondary antibody together with phalloidin conjugated to Alexa Fluor 555 for 2 h RT. The chips were then rinsed twice with PBS+Azide 0.1%.
The following antibodies are used: rabbit polyclonal anti-MAP-2 (AB5622; 1/400, MILLIPORE), mouse monoclonal Anti-Bassoon SAP7F407; 1:400, Enzo LifeSciences). Species-specific secondary antibodies coupled to Alexa 350, 488 or 500 are used (1/500, Life Technologies, Inc., Gaithersburg, Md., USA). Phalloidin conjugated to Alexa Fluor 555 (1/500, EnzoLifeTechnologies) is used to stain F-actin.
Images are acquired with an Axio-observer Zl (Zeiss, Germany) fitted with a cooled CCD camera (CoolsnapHQ2, Ropert Scientific). The microscope is controlled with Metamorph and Micro-manager software. Images were analyzed using ImageJ software.

Caspase-2 = molecular target: T3, Caspase-2 (Homo sapiens, UniProt P42575); assay: Caspase-2 inhibition assay for irreversible inhibitors (kinact/KI, continuous method); type: biochemical
T3 construct: the Caspase-2 and Caspase-3 are human recombinant active enzymes; purchased Enzo Life ALX-201-057-U100
T3 sequence (P42575 170-325 limits assumed): T1 sequence (P42575 170-325 limits assumed)
T3 sequence (P42575 348-452 limits assumed): T1 sequence (P42575 348-452 limits assumed)
Method: The efficiency of the comparative compound Δ2Me-TRP601, that is an already known group II Caspase inhibitor (inhibitor of Caspase-2, Caspase-3 and Caspase-7), has been assessed by a similar protocol described in Chauvier et al., 2011 Cell Death Dis 2011, 2:e203.
In this example, the Caspase-2 and Caspase-3 are human recombinant active enzymes that are respectively provided by Enzo Life® (ALX-201-057-U100) and R&D Systems® (707-C3-010/CF).
Caspase-2 is used at a final concentration of 0.1 nM in a “Caspase-2 buffer” containing 20 mM HEPES (pH 7.4), 5 mM DTT, 2 mM EDTA, 0.1% CHAPS and 800 mM succinate. Caspase-3 is used at a final concentration of 0.5 nM in a “Caspase-3 buffer” containing 20 mM HEPES (pH 7.4), 0.1% CHAPS, 5 mM DTT, and 2 mM EDTA.
The peptide substrates used for the enzymatic activity measurements are Ac-DEVD-AMC and Ac-VDVAD-AMC commercialized by EnzoLife® (respectively referenced ALX-260-031-M005 and ALX-260-060-M005). They are fluorogenic due to the presence of their AMC (7-amino-4-methylcoumarin) end group. The releasing of AMC enables to follow the enzymatic activity in fluorescence unit RFU over time in a 96-wells microplate.
The fluorescence values are measured at 37° C. with a spectrofluorometer with a microplate reader BMG FLUOstar OPTIMA. This apparatus is driven by the software Biolise® and is equipped with thermoelectric cooling device by Peltier effect. The mathematical analyses of the experimental data are done with the software Kaleidagraph®.
The inhibitory properties of the tested compounds are evaluated by the determination of the kinact/KI ratio regarding either Caspase-2 or Caspase-3 wherein: • kinact is the maximal inactivation rate constant, and • KI is the dissociation constant according to:
Said ratio is measured according to the continuous method (Allison R D. Curr Protoc Protein Sci. 2001 May; Chapter 3:Unit 3.5.; Chauvier et al., 2011 Cell Death Dis 2:e203; Tan et al., J Med Chem 2015, […]).
Briefly, Caspases activities were determined by monitoring the hydrolysis of fluorogenic substrates (λexc=355 nm, λem=460 nm) as a function of time, in the presence of untreated Caspases (control) or Caspases that had been incubated with a test compound, for 30 min minimum at 37° C. using a BMG Fluostar microplate reader (black 96-well microplates) and the initial velocity (V0) was determined from the linear portion of the progress curve.
Substrates and compounds were previously dissolved in DMSO at 10 mM, with the final solvent concentration kept at lower 4% (v/v). V0, relative velocities, KM and IC50 were determined from experimental data using Mars data Analysis 2.0 and Kaleidagraph softwares.
Inhibitor binding affinity (dissociation constant, KI) and first-order rate constant (k3) parameters were determined for Caspase-2 and Caspase-3 using the progress curve method. The ratio k3/KI was obtained by fitting the experimental data to the equations (F.U., fluorescence unit): […]
A continuous method of determination of the kinact/KI ratio was used for evaluating the inhibitory activity of the tested compounds against Caspase-2 and Caspase-3.
The reaction mixture is prepared by letting the enzyme and the buffer incubate at 37° C.
The tested inhibitory compounds are prepared at different concentrations (¼ IC50; ½ IC50; IC50; 2 IC50; 4 IC50) and put in the microplate.
Then the reaction mixture comprising the enzyme, the buffer and the substrate is rapidly added in the wells.
The activities of the enzyme are measured between 45 and 60 minutes.
The RFU (Relative Fluorescence Units)=f(times) curves are traced for each concentration of tested molecule according to the following equation: ((((−V0)*(exp(−kobs*m0)))+V0)/kobs*)+RFU0
in which: • V0 corresponds to the initial rate (RFU·s^−1) in the concentration of 0 of the tested inhibitory compound; • kobs is the inactivation rate constant; • RFU0 is the fluorescence value at t=0 min; and • m0 is the variable i.e. the inhibitor concentration.

IC50 (Casp-2): 3910 ± 189 nM
Ki (Casp-2): 3220 nM
Molecule: CC(=O)N[C@@H](CC(=O)O)C(=O)N[C@@H](CCC(=O)O)C(=O)N[C@H](C(=O)N[C@H](C=O)CC(=O)O)C(C)C [Ac-DEVD-CHO]

Molecule: CC(=O)N[C@H](C(=O)N[C@@H](CC(=O)O)C(=O)N[C@H](C(=O)N[C@@H](C)C(=O)N[C@H](C=O)CC(=O)O)C(C)C)C(C)C [Ac-VDVAD-CHO] (Ac-VDVAD-aldehyde)
Selectivity Indexes (KiCasp3/KiCasp2) (Casp-2): 1.3
IC50 (Casp-2): 6.9 nM
Ki (Casp-2): 6.31 nM
IC50 (Caspase-3; 30 minutes at 37° C. preincubation): 7.23 nM
Ki (Caspase-3; secondary plot of Lineweaver-Burk): 7.68 nM

Molecule: Aβ alone: Oligomeric form of Aβ1-42 (Tocris Bioscience) used to intoxicate neurons [reference compound]
decrease in synapse number [1]: ~50%

Molecule: CC(C)[C@H](NC(=O)c1ccc2ccccc2n1)C(=O)N[C@@H](CC(=O)O)C(=O)N[C@H](C(=O)N1CC[C@H](CC(C)(C)C)[C@H]1C(=O)N[C@@H](CC(=O)O)C(=O)COc1c(F)cccc1F)C(C)C (single isomer, unassigned) [Compound 2 enantiomer b]
k3/KI Casp2 (Caspase-2; human recombinant Caspase-2 0.1 nM, 37° C.): 1 720 M^−1 · s^−1
Selectivity ratio (C2/C3) (symbol) (Caspase-2; ratio of k3/KI Casp2 to Casp3): +++ (+++: as no inhibitory activity is detectable toward casp3, selectivity is very important (>>1000).)
